BindingDB's records for doi:10.1016/j.bioorg.2016.07.002 (Universiti Teknologi Mara, 2016)

Molecular target: T1, Beta-glucuronidase (Bos taurus, UniProt A3KMY8)
T1 sequence (A3KMY8 whole entry): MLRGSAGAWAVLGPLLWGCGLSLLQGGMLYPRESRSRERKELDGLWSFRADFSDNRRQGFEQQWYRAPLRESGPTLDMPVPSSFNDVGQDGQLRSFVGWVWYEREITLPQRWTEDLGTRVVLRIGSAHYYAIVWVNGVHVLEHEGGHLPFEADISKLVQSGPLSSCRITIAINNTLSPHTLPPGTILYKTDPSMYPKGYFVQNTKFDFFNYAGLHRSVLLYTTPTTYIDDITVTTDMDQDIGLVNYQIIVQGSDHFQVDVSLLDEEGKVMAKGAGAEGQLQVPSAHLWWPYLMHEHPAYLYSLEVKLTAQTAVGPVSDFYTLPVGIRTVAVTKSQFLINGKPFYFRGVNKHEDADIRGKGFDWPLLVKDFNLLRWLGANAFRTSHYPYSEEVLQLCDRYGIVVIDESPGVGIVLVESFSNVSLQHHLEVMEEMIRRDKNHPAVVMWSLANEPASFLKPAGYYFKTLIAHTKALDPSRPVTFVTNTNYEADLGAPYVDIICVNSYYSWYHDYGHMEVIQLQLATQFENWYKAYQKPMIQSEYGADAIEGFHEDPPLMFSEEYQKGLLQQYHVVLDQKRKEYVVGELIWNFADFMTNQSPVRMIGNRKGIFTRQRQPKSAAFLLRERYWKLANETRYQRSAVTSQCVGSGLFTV
Experiment: β-Glucuronidase assay
Procedure: […] was the volume of total reaction. Reaction mixture containing 5 µL of test compound solution, 185 µL of 0.1 M acetate buffer and 10 µL of enzyme solution wereincubated for 30 min at 37 °C. […] Experiments were performed for triplicate. To avoid precipitation compound concentration were decreased and the volume of reactionwas high (200 µL).

Structure (SMILES) | IC50 [µM]
O=S(=O)(Nc1ccccc1SSc1ccccc1NS(=O)(=O)c1ccccc1Br)c1ccccc1Br [N,N'-(disulfanediylbis(2,1-phenylene))bis(2-bromobenzenesulfonamide) (7)] | 58.5
O=S(=O)(Nc1ccccc1SSc1ccccc1NS(=O)(=O)c1ccccc1Cl)c1ccccc1Cl [N,N'-(disulfanediylbis(2,1-phenylene))bis(2-chlorobenzenesulfonamide) (1)] | 8.18
O=S(=O)(Nc1ccccc1SSc1ccccc1NS(=O)(=O)c1ccccc1F)c1ccccc1F [N,N'-(disulfanediylbis(2,1-phenylene))bis(2-fluorobenzenesulfonamide) (4)] | 6.23
Cc1ccccc1S(=O)(=O)Nc1ccccc1SSc1ccccc1NS(=O)(=O)c1ccccc1C [N,N'-(disulfanediylbis(2,1-phenylene))bis(2-methylbenzenesulfonamide) (14)] | 34.3
O=[N+]([O-])c1ccccc1S(=O)(=O)Nc1ccccc1SSc1ccccc1NS(=O)(=O)c1ccccc1[N+](=O)[O-] [N,N'-(disulfanediylbis(2,1-phenylene))bis(2-nitrobenzenesulfonamide) (10)] | 14.2
O=S(=O)(Nc1ccccc1SSc1ccccc1NS(=O)(=O)c1cccc(Br)c1)c1cccc(Br)c1 [N,N'-(disulfanediylbis(2,1-phenylene))bis(3-bromobenzenesulfonamide) (9)] | 88.2
O=[N+]([O-])c1ccc(S(=O)(=O)Nc2ccccc2SSc2ccccc2NS(=O)(=O)c2ccc([N+](=O)[O-])cc2)cc1 [N,N'-(disulfanediylbis(2,1-phenylene))bis(4-nitrobenzenesulfonamide) (11)] | 28.4

Next, values leading:

IC50 [µM] | Structure (SMILES)
11.3 | O=S(=O)(Nc1ccccc1SSc1ccccc1NS(=O)(=O)c1ccc(Cl)cc1Cl)c1ccc(Cl)cc1Cl [N,N'-(disulfanediylbis(2,1-phenylene))bis(2,4-dichlorobenzenesulfonamide) (17)]
16.2 | O=S(=O)(Nc1ccccc1SSc1ccccc1NS(=O)(=O)c1cc(Cl)ccc1Cl)c1cc(Cl)ccc1Cl [N,N'-(disulfanediylbis(2,1-phenylene))bis(2,5-dichlorobenzenesulfonamide) (18)]
25 | O=S(=O)(Nc1ccccc1SSc1ccccc1NS(=O)(=O)c1cccc(Cl)c1)c1cccc(Cl)c1 [N,N'-(disulfanediylbis(2,1-phenylene))bis(3-chlorobenzenesulfonamide) (2)]
34.5 | O=S(=O)(Nc1ccccc1SSc1ccccc1NS(=O)(=O)c1cccc(F)c1)c1cccc(F)c1 [N,N'-(disulfanediylbis(2,1-phenylene))bis(3-fluorobenzenesulfonamide) (5)]
59.3 | O=[N+]([O-])c1cccc(S(=O)(=O)Nc2ccccc2SSc2ccccc2NS(=O)(=O)c2cccc([N+](=O)[O-])c2)c1 [N,N'-(disulfanediylbis(2,1-phenylene))bis(3-nitrobenzenesulfonamide) (12)]
13.2 | O=S(=O)(Nc1ccccc1SSc1ccccc1NS(=O)(=O)c1ccc(F)cc1)c1ccc(F)cc1 [N,N'-(disulfanediylbis(2,1-phenylene))bis(4-fluorobenzenesulfonamide) (6)]
56.3 | COc1ccc(S(=O)(=O)Nc2ccccc2SSc2ccccc2NS(=O)(=O)c2ccc(OC)cc2)cc1 [N,N'-(disulfanediylbis(2,1-phenylene))bis(4-methoxybenzenesulfonamide) (20)]
